Assay results as given in ChEMBL document CHEMBL4414613, “Antibacterial 5α-Spirostane Saponins from the Fruit of Cordyline manners-suttoniae” (J Nat Prod, 2019).
Values after ≈ are worked out from the molar mass of the structure shown. Active and inactive are the calls of the source. The calls are words filed in the database; no cut-off is given here.

Legend:
[1] = system: Enterococcus faecium; assay: Antibacterial activity against Enterococcus faecium ATCC 35667 incubated for 24 hrs by microdilution assay; format: functional
[2] = system: Enterococcus faecium; assay: Antibacterial activity against Enterococcus faecium C15 incubated for 24 hrs by microdilution assay; format: functional
[3] = system: Staphylococcus aureus; assay: Antibacterial activity against Staphylococcus aureus ATCC 29247 at 90 uM incubated for 24 hrs by microdilution assay; format: functional, organism-based
[4] = system: Staphylococcus aureus; assay: Antibacterial activity against Staphylococcus aureus ATCC 25923 at 90 uM incubated for 24 hrs by microdilution assay; format: functional, organism-based
[5] = system: Staphylococcus aureus; assay: Bactericidal activity against Staphylococcus aureus ATCC 29247 at 90 uM incubated for 24 hrs by microdilution assay; format: functional, organism-based
[6] = system: Staphylococcus aureus; assay: Bactericidal activity against Staphylococcus aureus ATCC 25923 at 90 uM incubated for 24 hrs by microdilution assay; format: functional, organism-based
[7] = system: Enterococcus faecium; assay: Bactericidal activity against Enterococcus faecium ATCC 35667 at 90 uM incubated for 24 hrs by microdilution assay; format: functional, organism-based
[8] = system: Enterococcus faecium; assay: Bactericidal activity against Enterococcus faecium C15 at 90 uM incubated for 24 hrs by microdilution assay; format: functional, organism-based
[9] = system: HaCaT; assay: Cytotoxicity against human HaCaT cells assessed as reduction in cell viability incubated for 4 days by CellTiter 96 aqueous one solution assay; format: cell-based; conditions: 96 h
[10] = system: NHDF; assay: Cytotoxicity against human HDF cells assessed as reduction in cell viability incubated for 7 days by CellTiter 96 aqueous one solution assay; format: functional, cell-based; conditions: 168 h
[11] = system: Klebsiella pneumoniae; assay: Antibacterial activity against Klebsiella pneumoniae ATCC 13883 at 90 uM incubated for 24 hrs by microdilution assay; format: functional, organism-based
[12] = system: Klebsiella pneumoniae; assay: Antibacterial activity against Klebsiella pneumoniae ATCC 12657 at 90 uM incubated for 24 hrs by microdilution assay; format: functional, organism-based
[13] = system: Acinetobacter baumannii; assay: Antibacterial activity against Acinetobacter baumannii ATCC 19606 at 90 uM incubated for 24 hrs by microdilution assay; format: functional, organism-based; conditions: ATCC 19606 = CIP 70.34 = JCM 6841
[14] = system: Acinetobacter baumannii; assay: Antibacterial activity against Acinetobacter baumannii ATCC 17978 at 90 uM incubated for 24 hrs by microdilution assay; format: functional, organism-based
[15] = system: Pseudomonas aeruginosa; assay: Antibacterial activity against Pseudomonas aeruginosa ATCC 10145 at 90 uM incubated for 24 hrs by microdilution assay; format: functional, organism-based
[16] = system: Pseudomonas aeruginosa; assay: Antibacterial activity against Pseudomonas aeruginosa ATCC 49189 at 90 uM incubated for 24 hrs by microdilution assay; format: functional, organism-based
[17] = system: Enterobacter cloacae subsp. cloacae; assay: Antibacterial activity against Enterobacter cloacae ATCC 13047 at 90 uM incubated for 24 hrs by microdilution assay; format: functional
[18] = system: Klebsiella aerogenes; assay: Antibacterial activity against Enterobacter aerogenes ATCC 13048 at 90 uM incubated for 24 hrs by microdilution assay; format: functional
[19] = system: Klebsiella pneumoniae; assay: Bactericidal activity against Klebsiella pneumoniae ATCC 13883 at 90 uM incubated for 24 hrs by microdilution assay; format: functional, organism-based
[20] = system: Klebsiella pneumoniae; assay: Bactericidal activity against Klebsiella pneumoniae ATCC 12657 at 90 uM incubated for 24 hrs by microdilution assay; format: functional, organism-based
[21] = system: Acinetobacter baumannii; assay: Bactericidal activity against Acinetobacter baumannii ATCC 19606 at 90 uM incubated for 24 hrs by microdilution assay; format: functional, organism-based; conditions: ATCC 19606 = CIP 70.34 = JCM 6841
[22] = system: Acinetobacter baumannii; assay: Bactericidal activity against Acinetobacter baumannii ATCC 17978 at 90 uM incubated for 24 hrs by microdilution assay; format: functional, organism-based
[23] = system: Pseudomonas aeruginosa; assay: Bactericidal activity against Pseudomonas aeruginosa ATCC 10145 at 90 uM incubated for 24 hrs by microdilution assay; format: functional, organism-based
[24] = system: Pseudomonas aeruginosa; assay: Bactericidal activity against Pseudomonas aeruginosa ATCC 49189 at 90 uM incubated for 24 hrs by microdilution assay; format: functional, organism-based
[25] = system: Enterobacter cloacae subsp. cloacae; assay: Bactericidal activity against Enterobacter cloacae ATCC 13047 at 90 uM incubated for 24 hrs by microdilution assay; format: functional
[26] = system: Klebsiella aerogenes; assay: Bactericidal activity against Enterobacter aerogenes ATCC 13048 at 90 uM incubated for 24 hrs by microdilution assay; format: functional
[27] = Selectivity ratio of IC50 for human HaCaT cells to IC50 for human HDF cells by CellTiter 96 aqueous one solution assay
[28] = system: Enterococcus faecium; assay: Antibacterial activity against Enterococcus faecium ATCC 35667 at 90 uM incubated for 24 hrs by microdilution assay; format: functional, organism-based
[29] = system: Staphylococcus aureus; assay: Antibacterial activity against Staphylococcus aureus ATCC 29247 incubated for 24 hrs by microdilution assay; format: functional
[30] = system: Staphylococcus aureus; assay: Antibacterial activity against Staphylococcus aureus ATCC 25923 incubated for 24 hrs by microdilution assay; format: functional
[31] = system: Enterococcus faecium; assay: Bactericidal activity against Enterococcus faecium ATCC 35667 incubated for 24 hrs by microdilution assay; format: functional; conditions: ATCC 35667, 24 h
[32] = system: Enterococcus faecium; assay: Bactericidal activity against Enterococcus faecium C15 incubated for 24 hrs by microdilution assay; format: functional; conditions: C15, 24 h

| Compound | MIC75 [2] [µM] | Activity [5] | Activity [6] | IC50 [9] [µM] | IC50 [10] [µM] | Activity [11] | Activity [12] | Activity [13] | Activity [14] | Activity [15] | Activity [16] | Activity [17] | Activity [18] | Activity [19] | Activity [20] | Activity [21] | Activity [22] | Activity [23] | Activity [24] | Activity [25] | other results |
| --- | --- | --- | --- | --- | --- | --- | --- | --- | --- | --- | --- | --- | --- | --- | --- | --- | --- | --- | --- | --- | --- |
| C[C@@H]1CC[C@]2(OC1)O[C@H]1C[C@H]3[C@@H]4CC[C@H]5[C@H](O)[C@@H](O)C[C@@H](O[C@@H]6O[C@H](C)[C@H](O)[C@H](O)[C@H]6O)[C@]5(C)[C@H]4CC[C@]3(C)[C@H]1[C@@H]2C | 84.1 (≈ 50 µg/mL) | inactive | inactive | 36.3 | 8.6 | inactive | inactive | inactive | inactive | inactive | inactive | inactive | inactive | inactive | inactive | inactive | inactive | inactive | inactive | inactive | MIC75 [1]: 84.1 µM (≈ 50 µg/mL); Activity [3]: inactive; Activity [4]: inactive; Activity [7]: inactive; Activity [8]: inactive; Activity [26]: inactive; Ratio IC50 [27]: 3 - 11 |
| C[C@@H]1CC[C@]2(OC1)O[C@H]1C[C@H]3[C@@H]4CC[C@H]5C[C@H](O)C[C@@H](O[C@@H]6O[C@H](C)[C@H](O)[C@H](O)[C@H]6O)[C@]5(C)[C@H]4CC[C@]3(C)[C@H]1[C@@H]2C | 43.2 (≈ 25 µg/mL) | inactive | inactive | 36.5 | 7.5 | inactive | inactive | inactive | inactive | inactive | inactive | inactive | inactive | inactive | inactive | inactive | inactive | inactive | inactive | inactive | MIC75 [29]: 43.2 µM (≈ 25 µg/mL); MIC75 [30]: 43.2 µM (≈ 25 µg/mL); MIC75 [1]: 43.2 µM (≈ 25 µg/mL); MBC [31]: 86.4 µM (≈ 50 µg/mL); MBC [32]: 86.4 µM (≈ 50 µg/mL); Activity [26]: inactive; Ratio IC50 [27]: 3 - 11 |
| O=C(N[C@H](CO)[C@H](O)c1ccc([N+](=O)[O-])cc1)C(Cl)Cl [CHLORAMPHENICOL] | 9.7 (≈ 3.13 µg/mL) | inactive | inactive |  |  |  |  |  |  |  |  |  |  |  |  |  |  |  |  |  | MIC75 [29]: 9.7 µM (≈ 3.13 µg/mL); MIC75 [30]: 9.7 µM (≈ 3.13 µg/mL); MIC75 [1]: 9.7 µM (≈ 3.13 µg/mL); Activity [7]: inactive; Activity [8]: inactive |
| COc1cccc2c1C(=O)c1c(O)c3c(c(O)c1C2=O)C[C@@](O)(C(=O)CO)C[C@@H]3O[C@H]1C[C@H](N)[C@H](O)[C@H](C)O1 [DOXORUBICIN] |  |  |  | 0.01 | 0.011 |  |  |  |  |  |  |  |  |  |  |  |  |  |  |  |  |
| C=C1CC[C@]2(OC1)O[C@H]1C[C@H]3[C@@H]4CC[C@H]5C[C@H](O)C[C@@H](O[C@@H]6O[C@H](C)[C@H](O)[C@H](O)[C@H]6O)[C@]5(C)[C@H]4CC[C@]3(C)[C@H]1[C@@H]2C | 21.7 (≈ 12.5 µg/mL) | inactive | inactive | 38.9 | 8.3 | inactive | inactive | inactive | inactive | inactive | inactive | inactive | inactive | inactive | inactive | inactive | inactive | inactive | inactive | inactive | MIC75 [29]: 21.7 µM (≈ 12.5 µg/mL); MIC75 [30]: 21.7 µM (≈ 12.5 µg/mL); MIC75 [1]: 43.3 µM (≈ 25 µg/mL); MBC [31]: 86.4 µM (≈ 49.8 µg/mL); MBC [32]: 86.4 µM (≈ 49.8 µg/mL); Activity [26]: inactive; Ratio IC50 [27]: 3 - 11 |

Now from value to compound, other results behind:

| MIC75 [2] [µM] | Compound | Activity [5] | Activity [6] | IC50 [9] [µM] | IC50 [10] [µM] | Activity [11] | Activity [12] | Activity [13] | Activity [14] | Activity [15] | Activity [16] | Activity [17] | Activity [18] | Activity [19] | Activity [20] | Activity [21] | Activity [22] | Activity [23] | Activity [24] | Activity [25] | other results |
| --- | --- | --- | --- | --- | --- | --- | --- | --- | --- | --- | --- | --- | --- | --- | --- | --- | --- | --- | --- | --- | --- |
| 84.3 (≈ 50 µg/mL) | C=C1CC[C@]2(OC1)O[C@H]1C[C@H]3[C@@H]4CC[C@H]5[C@H](O)[C@H](O)C[C@@H](O[C@@H]6O[C@H](C)[C@H](O)[C@H](O)[C@H]6O)[C@]5(C)[C@H]4CC[C@]3(C)[C@H]1[C@@H]2C | inactive | inactive | 47.4 | 16.5 | inactive | inactive | inactive | inactive | inactive | inactive | inactive | inactive | inactive | inactive | inactive | inactive | inactive | inactive | inactive | Activity [3]: inactive; Activity [4]: inactive; Activity [28]: inactive; Activity [7]: inactive; Activity [8]: inactive; Activity [26]: inactive; Ratio IC50 [27]: 3 - 11 |
| 84.3 (≈ 50 µg/mL) | C=C1CC[C@]2(OC1)O[C@H]1C[C@H]3[C@@H]4CC[C@H]5[C@H](O)[C@@H](O)C[C@@H](O[C@@H]6O[C@H](C)[C@H](O)[C@H](O)[C@H]6O)[C@]5(C)[C@H]4CC[C@]3(C)[C@H]1[C@@H]2C | inactive | inactive | 42.1 | 8.9 | inactive | inactive | inactive | inactive | inactive | inactive | inactive | inactive | inactive | inactive | inactive | inactive | inactive | inactive | inactive | Activity [3]: inactive; Activity [4]: inactive; Activity [28]: inactive; Activity [7]: inactive; Activity [8]: inactive; Activity [26]: inactive; Ratio IC50 [27]: 3 - 11 |
| 84.1 (≈ 50 µg/mL) | C[C@@H]1CC[C@]2(OC1)O[C@H]1C[C@H]3[C@@H]4CC[C@H]5[C@H](O)[C@H](O)C[C@@H](O[C@@H]6O[C@H](C)[C@H](O)[C@H](O)[C@H]6O)[C@]5(C)[C@H]4CC[C@]3(C)[C@H]1[C@@H]2C | inactive | inactive | 74.9 | 6.6 | inactive | inactive | inactive | inactive | inactive | inactive | inactive | inactive | inactive | inactive | inactive | inactive | inactive | inactive | inactive | Activity [3]: inactive; Activity [4]: inactive; Activity [28]: inactive; Activity [7]: inactive; Activity [8]: inactive; Activity [26]: inactive; Ratio IC50 [27]: 3 - 11 |
